Tested on: moderate-to-severe chronic spontaneous urticaria (CSU)
Test: Phase 2 CSU study: urticaria activity score over 7 days (UAS7)
Format: in vivo, human
Conditions: ITT, 400 mg BID
Source text: The study comprises a 12 week, randomized, double-blind, placebo-controlled, multi-center, dose-ranging efficacy and safety phase, followed by a 40 week open label extension (OLE) phase (see FIG. 1). The study consists of three phases and an optional OLE phase. […] Clinically, CSU is characterized by the spontaneous and recurrent appearance of pruritic hives. The proposed primary endpoints were the UAS7 at Week 12 in EU and EU reference countries and the ISS7 in the US. Regardless of where a participant was from, all assessments were the same. The UAS7 score is a composite score containing both the HSS7 and the ISS7. This allowed a global assessment of the two key components of urticaria: hives and itch. […] The UAS is a validated PRO measure. […] The daily UAS scores range from 0 to 6 point/day. […] Patients were to complete the UAS using the e-diary. […] The following secondary endpoints were to be analyzed using the same approach as for the primary endpoint: • Change from baseline in UAS7 at Week 4 • Change from baseline in UAS7 at Week 12 (for US and US reference countries) • Change from baseline in ISS7 at Week 12 (except US and US reference countries) • Change from baseline in HSS7 at Week 12 The following responder secondary endpoints were to be analyzed using the Cochran-Mantel-Haenszel test adjusted by region: • Proportion of participants with UAS7<6 at Week 12 • Proportion of participants with UAS7=0 at Week 12 Participants who received selected prohibited medications and/or rescue medications were to be considered as non-responders for time points after the medication usage. For other participants, all available data including those collected during the off-treatment period were to be used to determine the responder/non-responder status. Missing data were to be considered as non-responders.

## CC(C)(C=C(C#N)C(=O)N1CCC[C@@H](n2nc(-c3ccc(Oc4ccccc4)cc3F)c3c(N)ncnc32)C1)N1CCN(C2COC2)CC1 [rilzabrutinib, (R)-2-[3-[4-amino-3-(2-fluoro-4-phenoxy-phenyl)pyrazolo[3,4-d]pyrimidin-1-yl]piperidine-1-carbonyl]-4-methyl-4-[4-(oxetan-3-yl)piperazin-1-yl]pent-2-enenitrile]
Week 4
  OR for rilzabrutinib vs. placebo, UAS7 ≤6: 2.948
  RRD (%) for rilzabrutinib vs. placebo, UAS7 = 0: 1.3 %
  RRD (%) for rilzabrutinib vs. placebo, UAS7 ≤6: 16.7 %
  Responder n (%), UAS7 = 0: 3 (7.3) n (%)
  Responder n (%), UAS7 ≤6: 13 (31.7) n (%)
Week 5
  Imputed non-responder n (%), UAS7 = 0: 5 (12.2) n (%)
  Imputed non-responder n (%), UAS7 ≤6: 5 (12.2) n (%)
  Non-responder n (%), UAS7 = 0: 35 (85.4) n (%)
  Non-responder n (%), UAS7 ≤6: 28 (68.3) n (%)
  OR for rilzabrutinib vs. placebo, UAS7 = 0: 6.024
  OR for rilzabrutinib vs. placebo, UAS7 ≤6: 8.203
  RRD (%) for rilzabrutinib vs. placebo, UAS7 ≤6: 24.3 %
  Responder n (%), UAS7 = 0: 6 (14.6) n (%)
  Responder n (%), UAS7 ≤6: 13 (31.7) n (%)
Week 6
  Imputed non-responder n (%), UAS7 = 0: 4 (9.8) n (%)
  Imputed non-responder n (%), UAS7 ≤6: 4 (9.8) n (%)
  Non-responder n (%), UAS7 = 0: 36 (87.8) n (%)
  Non-responder n (%), UAS7 ≤6: 29 (70.7) n (%)
  OR for rilzabrutinib vs. placebo, UAS7 = 0: 4.821
  OR for rilzabrutinib vs. placebo, UAS7 ≤6: 2.329
  RRD (%) for rilzabrutinib vs. placebo, UAS7 = 0: 8.4 %
  RRD (%) for rilzabrutinib vs. placebo, UAS7 ≤6: 13.6 %
  Responder n (%), UAS7 = 0: 5 (12.2) n (%)
  Responder n (%), UAS7 ≤6: 12 (29.3) n (%)
Week 7
  Imputed non-responder n (%), UAS7 = 0: 4 (9.8) n (%)
  Imputed non-responder n (%), UAS7 ≤6: 4 (9.8) n (%)
  Non-responder n (%), UAS7 = 0: 35 (85.4) n (%)
  Non-responder n (%), UAS7 ≤6: 29 (70.7) n (%)
  OR for rilzabrutinib vs. placebo, UAS7 = 0: 6.024
  OR for rilzabrutinib vs. placebo, UAS7 ≤6: 3.425
  RRD (%) for rilzabrutinib vs. placebo, UAS7 ≤6: 17.8 %
  Responder n (%), UAS7 = 0: 6 (14.6) n (%)
  Responder n (%), UAS7 ≤6: 12 (29.3) n (%)
Week 8
  Imputed non-responder n (%), UAS7 = 0: 5 (12.2) n (%)
  Imputed non-responder n (%), UAS7 ≤6: 5 (12.2) n (%)
  Non-responder n (%), UAS7 = 0: 33 (80.5) n (%)
  Non-responder n (%), UAS7 ≤6: 25 (61.0) n (%)
  OR for rilzabrutinib vs. placebo, UAS7 = 0: 4.083
  OR for rilzabrutinib vs. placebo, UAS7 ≤6: 3.297
  RRD (%) for rilzabrutinib vs. placebo, UAS7 = 0: 13.4 %
  RRD (%) for rilzabrutinib vs. placebo, UAS7 ≤6: 21.8 %
  Responder n (%), UAS7 = 0: 8 (19.5) n (%)
  Responder n (%), UAS7 ≤6: 16 (39.0) n (%)
Week 9
  Imputed non-responder n (%), UAS7 = 0: 9 (22.0) n (%)
  Imputed non-responder n (%), UAS7 ≤6: 9 (22.0) n (%)
  Non-responder n (%), UAS7 = 0: 33 (80.5) n (%)
  Non-responder n (%), UAS7 ≤6: 28 (68.3) n (%)
  OR for rilzabrutinib vs. placebo, UAS7 = 0: 2.914
  OR for rilzabrutinib vs. placebo, UAS7 ≤6: 3.540
  RRD (%) for rilzabrutinib vs. placebo, UAS7 = 0: 11.3 %
  RRD (%) for rilzabrutinib vs. placebo, UAS7 ≤6: 19.4 %
  Responder n (%), UAS7 = 0: 8 (19.5) n (%)
  Responder n (%), UAS7 ≤6: 13 (31.7) n (%)
Week 10
  Imputed non-responder n (%), UAS7 = 0: 10 (24.4) n (%)
  Imputed non-responder n (%), UAS7 ≤6: 10 (24.4) n (%)
  Non-responder n (%), UAS7 = 0: 32 (78.0) n (%)
  Non-responder n (%), UAS7 ≤6: 29 (70.7) n (%)
  OR for rilzabrutinib vs. placebo, UAS7 = 0: 2.322
  OR for rilzabrutinib vs. placebo, UAS7 ≤6: 1.699
  RRD (%) for rilzabrutinib vs. placebo, UAS7 = 0: 10.9 %
  RRD (%) for rilzabrutinib vs. placebo, UAS7 ≤6: 8.6 %
  Responder n (%), UAS7 = 0: 9 (22.0) n (%)
  Responder n (%), UAS7 ≤6: 12 (29.3) n (%)
Week 11
  Imputed non-responder n (%), UAS7 = 0: 9 (22.0) n (%)
  Imputed non-responder n (%), UAS7 ≤6: 9 (22.0) n (%)
  Non-responder n (%), UAS7 = 0: 35 (85.4) n (%)
